Reference: US11952358B2, “Flavan-3-ol analogs and anti-inflammatory activity” (Hong Kong Baptist University, priority 2021, dated 2024)

Legend:
RAW 264.7 cells = test: CCK8 cell viability assay; type: cell-based, mouse; settings: 100 μM, 24 h
Protocol: (§1) RAW 264.7 cells were plated in a 96-well plate and treated with each compound (0, 25 μM, 50 μM and 100 μM) for 24 h. The viability of cells was tested by CCK8 assay. Data from three times independent experiments were expressed as means±SD. *P<0.05 compared with the control group for compound 3a-3j.
RAW 264.7 cells were plated in a 96-well plate and treated with each compound (0, 25 μM, 50 μM and 100 μM) for 24 h. The viability of cells was tested by CCK8 assay. Data from three times independent experiments were expressed as means±SD. *P<0.05 compared with the control group for compound 3k-3t.
RAW 264.7 cells were plated in a 96-well plate and treated with each compound (0, 25 μM, 50 μM and 100 μM) for 24 h. The viability of cells was tested by CCK8 assay. Data from three times independent experiments were expressed as means±SD. *P<0.05 compared with the control group for compound 3u-3ad.
as §1, with “3ae-3ag′.” for “3a-3j.”
Cell Viability Assay The CCK8 assay was used to evaluate the effect of each flavan-3-ol on the viability of RAW264.7 cells. Cells were plated into 96-well plates at a density of 2×10^5 cells/well in medium and cultured overnight. For formal experiments, cells were treated with different concentrations of flavan-3-ols (25, 50, and 100 μM). After 24 h, 20 μl CCK8 solution (cat #A311-01/02, Vazyme Biotech Co., Ltd., Nanjing, China) was added into the medium and incubated for 45 min. The absorbance was measured at 450 nm.
To evaluate the anti-inflammatory effects of these newly synthesized flavan-3-ols, RAW 264.7 cells (mouse monocyte/macrophage cell) were used as the in vitro model. First, CCK-8 (Cell Counting Kit-8) assay was performed to test the effects of these newly synthesized flavan-3-ols on cell viability (FIG. 9a-d). RAW 264.7 cells were treated with the newly synthesized flavan-3-ols ranging from 25 to 100 μM for 24 h. As shown in […], treatment with each compound at 25 and 50 μM for 24 h had no effect on the cell viability of RAW 264.7 cell. […] Therefore, the final concentration of each compound used in the following experiments were no more than 100 μM, and compound concentrations at 25 and 50 μM were used in the further experiments.

[1] = test system: LPS-stimulated RAW 264.7 cells; test: RNA-sequencing analysis with GO and KEGG enrichment; type: cell-based, mouse; settings: for inflammation-related genes downregulated: KEGG-classified inflammation-related genes
Protocol: RNA-sequencing analysis RAW 264.7 cells were treated with each flavan-3-ol (25, 50 μM) for 24 h followed by LPS (1 μg/mL) stimulation for another 2 h. Cells were collected and then directly prepared for cDNAs amplification and RNA-Seq library construction. Total RNA was isolated with TRIzol reagent from each group. A complementary DNA library was prepared and sequencing was performed according to the Illumina standard protocol developed by Suzhou GENEWIZ Biological Technology Co., Ltd. (https://www.genewiz.com). […] After filtering, reference genome and gene model annotation files were downloaded from a genome website browser (NCBI/UCSC/Ensembl). Indexes of the reference genome were built using Bowtie v2.0.6 and paired-end clean reads were aligned to the reference genome using TopHat v2.0.9. Bowtie was used for a BWT (Burrows-Wheeler Transformer) algorithm for mapping reads to the genome and Tophat can generate a database of splice junctions based on the gene model annotation file and thus achieve a better mapping result than other non-splice mapping tools. For the quantification of gene expression level, HTSeq V0.6.1 was used to count the read numbers mapped for each gene. The RPKM of each gene was calculated based on the gene read counts mapped to this gene. A differential expression analysis was performed using the DESeq R package (1.10.1). For clustering, the inventors clustered different samples to see the correlation using hierarchical clustering distance method with the function of heatmap, SOM (Self-organization mapping) and k means using silhouette coefficient to adapt the optimal classification with default parameter in R. The complete RNA-seq datasets in this manuscript captioned has been deposited at GEO database (http://www.ncbi.nlm.nih.gov/geo/) under accession ID GSE181052.
Gene ontology (GO) and KEGG enrichment analysis GO enrichment analysis of differentially expressed genes was implemented by the GOseq R Package, in which gene length bias was corrected. GO analysis was performed with the DAVID online tool (https://david.ncifcrf.gov/). Top GO categories were selected according to the P-values. Pathways of differentially expressed genes were analyzed by the KEGG database (http://www.kegg.jp/kegg/). The inventors used KOBAS software to test the statistical enrichment of differential expression genes in KEGG pathways.
RNA-seq analysis of downstream genes regulated by flavan-3-ols. […] RNA-seq analysis was performed to further study the effects of compounds 3m, 3o, 3p, 3ae and 3ag on gene transcriptional pathways related to inflammation. RAW 264.7 cells were used in the RNA-seq analysis, in which cells were pretreated with each compound (50 μM) for 24 h followed by LPS (1 μg/mL) stimulation for another 2 h. […] Next, the inventors focused on genes related to inflammatory reactions and inflammation-related diseases (inflammation-related genes) based on the gene and pathway classification of Kyoto Encyclopedia of Genes and Genomes (KEGG database).
To further analyze the functional distribution of differentially-expressed genes in relation to different biological processes, cellular components and molecular functions, gene ontology (GO) enrichment analysis was performed. The histogram of GO enrichment of differentially-expressed genes was presented.
Furthermore, to determine the biochemical metabolic pathways and signal transduction pathways involved in differentially expressed genes regulated by compound 3ag, KEGG pathway analysis was then performed.

IL-1β = test: ELISA of IL-1β secretion from LPS-stimulated RAW 264.7 cells; type: cell-based, mouse; settings: compound 50 μM 24 h, then LPS 1 μg/mL 2 h (FIG. 8)
Protocol: RAW 264.7 cells were pretreated with each compound (50 μM) for 24 h followed by LPS (1 μg/mL) stimulation for another 2 h. The concentrations of IL-1β in RAW 264.7 cell culture supernatants were measured by ELISA kits and the inhibition rate of compound on the secretion of each pro-inflammatory cytokine was calculated. Data from three independent experiments were expressed as means±SD. *P<0.05, **P<0.01 compared with LPS-stimulated group.
Cell culture The RAW 264.7 cell line was purchased from the Cell Bank of Shanghai Institute of Biochemistry & Cell Biology at the Chinese Academy of Sciences (Shanghai, China) and cultured in DMEM supplemented with 10% (v/v) fetal bovine serum (FBS), 100 U/ml penicillin and 100 […], in a stable environment with 5% CO2 at 37° C. Before used in the following in vitro experiments, RAW 264.7 cells were pretreated with synthesized flavan-3-ol (25, 50 μM) for 24 h followed by LPS (1 μg/mL) stimulation for another 2 h.
Enzyme-Linked Immunosorbent Assay (ELISA) RAW 264.7 cells were treated with these synthesized flavan-3-ols (25, 50 μM) for 24 h followed by LPS (1 μg/mL) stimulation for another 2 h and the culture supernatant was collected. The concentrations of IL-1β, IL-6 and TNF-α in the culture supernatant of RAW 264.7 cells were determined according to the manufacturer's instructions of the Duo-set enzyme linked immune sorbent assay kits, purchased from R&D Systems Co. Ltd. (Minneapolis, MN, USA).
The increased pro-inflammatory cytokines production in RAW 264.7 cells has been reported to play an influential role in the inflammation response. To evaluate the anti-inflammatory effects of these flavan-3-ols in vitro, ELISA kits were employed to investigate their effects on the LPS (lipopolysaccharide)-induced pro-inflammatory cytokines production of RAW 264.7 cells. After treating with the flavan-3-ols (25 and 50 μM) and stimulated by LPS, the levels of three main pro-inflammation cytokines including IL-1β ([…]), IL-6 (interleukin-6), and TNF-α (tumor necrosis factor-α) in culture supernatant from RAW 264.7 cells were measured by ELISA kits, and then the inhibition rates of the flavan-3-ols on the secretion of each pro-inflammatory cytokine were calculated by the formula shown as follows.
[formula] In this formula, “L” refers to “the pro-inflammatory cytokine level in cell culture supernatant of LPS-induced group (L)” and “Lc” refers to “the pro-inflammatory cytokine level in cell culture supernatant of compound-treated group (Lc)”. Using this calculation, the reduced levels of pro-inflammation cytokines in the compound treated group would give higher values, which reflect higher inhibition rates.
FIG. 4a-c show the effect of flavan-3-ols on pro-inflammatory cytokine secretion in vitro. RAW 264.7 cells were pretreated with each compound (25, 50 μM) for 24 h followed by LPS (1 μg/mL) stimulation for another 2 h. The concentrations of IL-1β, IL-6, TNF-α in RAW 264.7 cell culture supernatants were measured by ELISA kits and the inhibition rate of compound on the secretion of each pro-inflammatory cytokine was calculated.

[2] = 50 μM, vs LPS-stimulated group, of a total of 1915 genes

Structure (SMILES) | melting point | effect on cell viability (RAW 264.7 cells) | inflammation-related genes downregulated ([1]; 50 μM, vs LPS-stimulated group) | inhibition rate of IL-1β secretion compared with enantiomer and racemic form (IL-1β) | further results
O[C@H]1Cc2cc(F)ccc2O[C@@H]1c1ccccc1 [3ad, (2R,3S)-6-fluoro-2-phenylchroman-3-ol] | 110 to 111 °C | reduced viability | – | – | –
O[C@H]1Cc2cc(Cl)cc(Cl)c2O[C@@H]1c1ccccc1 [3ag, (2R,3S)-6,8-dichloro-2-phenylchroman-3-ol] | 126 to 127 °C | – | 40 genes | higher inhibition rates than their enantiomers | genes differentially regulated ([1]; 50 μM 24 h, then LPS 1 μg/mL 2 h, vs untreated LPS-stimulated group): 1098 genes; genes downregulated ([1]; 50 μM, vs LPS-stimulated group): 954 genes; genes upregulated ([1]; 50 μM, vs LPS-stimulated group): 144 genes; genes downregulated, share of genes expressed [1, 2]: 49.8%; genes upregulated, share of genes expressed [1, 2]: 7.5%; GO enrichment of downregulated genes ([1]; vs LPS-induced group (FIG. 6)): associated with inflammatory response (GO: 0006954) and cellular response to lipopolysaccharide (GO: 0071222); KEGG pathways of downregulated genes ([1]; vs LPS-induced group (FIG. 7a-b)): IL-17 signaling pathways, PI3K-Akt signaling pathway and TNF signaling pathway
O[C@H]1Cc2c(F)cc(F)cc2O[C@@H]1c1ccc(F)c(F)c1 [3ai, (2R,3S)-2-(3,4-difluorophenyl)-5,7-difluorochroman-3-ol] | – | reduced viability | – | – | –
O[C@H]1Cc2ccccc2O[C@@H]1c1ccc(C(F)(F)F)cc1 [3i, (2R,3S)-2-(4-(trifluoromethyl)phenyl)chroman-3-ol] | 114 to 115 °C | reduced viability | – | – | –
O[C@H]1Cc2ccccc2O[C@@H]1c1ccc2ccccc2c1 [3m, (2R,3S)-2-(naphthalen-2-yl)chroman-3-ol] | 141 to 142 °C | – | downregulated parts of inflammation-related genes | higher inhibition rates than their enantiomers | –
O[C@H]1Cc2ccccc2O[C@@H]1c1cccs1 [3n, (2S,3S)-2-(thiophen-2-yl)chroman-3-ol] | 94 to 95 °C | reduced viability | – | – | –
O[C@H]1Cc2ccccc2O[C@@H]1c1ccco1 [3o, (2S,3S)-2-(furan-2-yl)chroman-3-ol] | 80 to 81 °C | – | downregulated parts of inflammation-related genes | higher inhibition rates than their enantiomers | –
